In assay [1] the test system is Rattus norvegicus. The assay is described as follows: Antiinflammatory activity in LPS-stimulated rat assessed as total number of leukocytes in bronchoalveolar lavage fluid at 10 mg/kg, po administered 1 hr before LPS challenge measured after 3 hrs. It counts as functional, Lung.
Assay [2] deals with 3',5'-cyclic-AMP phosphodiesterase 4B (Homo sapiens, UniProt Q07343). The assay is described as follows: Inhibition of core catalytic domains PDE4B (unknown origin).
Assay [3] deals with T1, cGMP-inhibited 3',5'-cyclic phosphodiesterase 3A (Homo sapiens, UniProt Q14432). The assay is described as follows: Inhibition of core catalytic domains PDE3A (unknown origin) at 100 uM.
T1 sequence (Q14432 whole entry, the tested form may be a part): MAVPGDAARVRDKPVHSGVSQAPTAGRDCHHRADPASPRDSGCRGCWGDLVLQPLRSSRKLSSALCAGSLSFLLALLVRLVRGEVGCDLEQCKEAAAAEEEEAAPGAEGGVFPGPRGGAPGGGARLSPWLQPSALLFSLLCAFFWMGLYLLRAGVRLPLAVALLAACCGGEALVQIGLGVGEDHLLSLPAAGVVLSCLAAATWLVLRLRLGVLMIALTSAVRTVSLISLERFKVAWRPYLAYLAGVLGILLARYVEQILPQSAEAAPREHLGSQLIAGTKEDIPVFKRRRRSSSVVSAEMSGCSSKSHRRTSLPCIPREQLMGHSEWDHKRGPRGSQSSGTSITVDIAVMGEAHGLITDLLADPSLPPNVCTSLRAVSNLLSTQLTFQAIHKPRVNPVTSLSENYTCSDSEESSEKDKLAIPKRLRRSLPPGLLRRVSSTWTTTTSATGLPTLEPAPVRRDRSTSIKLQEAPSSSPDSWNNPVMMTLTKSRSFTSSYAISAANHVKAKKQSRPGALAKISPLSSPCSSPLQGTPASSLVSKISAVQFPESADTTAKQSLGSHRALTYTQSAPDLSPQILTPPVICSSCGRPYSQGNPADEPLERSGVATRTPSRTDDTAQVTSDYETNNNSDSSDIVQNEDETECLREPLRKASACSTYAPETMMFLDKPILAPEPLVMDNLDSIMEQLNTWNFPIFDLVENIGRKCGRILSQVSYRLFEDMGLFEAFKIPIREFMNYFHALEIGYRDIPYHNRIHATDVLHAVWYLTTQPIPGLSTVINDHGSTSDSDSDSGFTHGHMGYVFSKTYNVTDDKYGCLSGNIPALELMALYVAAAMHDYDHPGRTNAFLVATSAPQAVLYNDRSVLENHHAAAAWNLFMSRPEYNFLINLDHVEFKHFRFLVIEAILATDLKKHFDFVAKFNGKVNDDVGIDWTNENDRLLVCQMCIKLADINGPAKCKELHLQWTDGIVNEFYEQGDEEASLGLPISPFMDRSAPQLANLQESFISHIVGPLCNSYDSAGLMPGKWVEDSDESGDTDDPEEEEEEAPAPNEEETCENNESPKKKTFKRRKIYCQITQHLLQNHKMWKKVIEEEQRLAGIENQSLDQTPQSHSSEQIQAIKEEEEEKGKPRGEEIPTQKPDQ
Assay [4] relates to Rattus norvegicus. The assay is described as follows: Antiinflammatory activity in LPS-stimulated rat assessed as total number of leukocytes in bronchoalveolar lavage fluid at 1 mg/kg, po administered 1 hr before LPS challenge measured after 3 hrs. It counts as functional, Lung.
The subject of assay [5] is Rattus norvegicus. The assay is described as follows: Antiinflammatory activity in LPS-stimulated rat assessed as total number of leukocytes in bronchoalveolar lavage fluid at 3 mg/kg, po administered 1 hr before LPS challenge measured after 3 hrs. It counts as functional, Lung.
Assay [6] addresses T1, cGMP-inhibited 3',5'-cyclic phosphodiesterase 3A. The assay is described as follows: Inhibition of core catalytic domains PDE3A (unknown origin).

Active and inactive are the calls of the source. No cut-off for these calls is given here. Bounds are passed on as bounds.

Chain of 3',5'-cyclic-AMP phosphodiesterase 4B (Q07343 whole entry, the tested form may be a part): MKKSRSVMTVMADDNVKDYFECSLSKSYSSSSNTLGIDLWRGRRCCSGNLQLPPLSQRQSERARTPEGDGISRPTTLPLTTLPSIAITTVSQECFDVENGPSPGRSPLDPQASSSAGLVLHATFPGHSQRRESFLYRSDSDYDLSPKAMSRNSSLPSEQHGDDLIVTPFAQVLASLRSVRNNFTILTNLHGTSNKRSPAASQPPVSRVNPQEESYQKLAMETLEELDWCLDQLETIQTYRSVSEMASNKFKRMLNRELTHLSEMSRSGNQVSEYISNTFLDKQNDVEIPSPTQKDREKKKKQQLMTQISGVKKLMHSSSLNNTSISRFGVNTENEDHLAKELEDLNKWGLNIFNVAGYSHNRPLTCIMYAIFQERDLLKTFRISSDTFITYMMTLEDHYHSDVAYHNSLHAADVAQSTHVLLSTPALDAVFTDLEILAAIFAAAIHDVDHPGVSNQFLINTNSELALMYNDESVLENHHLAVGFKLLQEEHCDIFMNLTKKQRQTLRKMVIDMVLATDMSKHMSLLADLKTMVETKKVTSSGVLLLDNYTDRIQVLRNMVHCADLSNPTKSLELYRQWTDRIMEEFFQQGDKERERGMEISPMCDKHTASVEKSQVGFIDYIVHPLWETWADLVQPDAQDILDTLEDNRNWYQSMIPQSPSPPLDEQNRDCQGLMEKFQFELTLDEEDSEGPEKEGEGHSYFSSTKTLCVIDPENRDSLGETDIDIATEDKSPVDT

With `COc1ccc(C(=O)Nc2c(Cl)c[n+]([O-])cc2Cl)c2cc(C(C)C)nn12`, in the assay with Rattus norvegicus [1], the Activity is 63%. Further, in assay [2], it took 10 nM to reach half-maximal inhibition (IC50). Also, the inhibition result in assay [3] was “inactive”.

Take `COc1ccc(C(O)c2ccncc2)c2cc(C(F)(F)F)nn12` (centres undefined): in assay [2], the concentration for half-maximal inhibition (IC50) (as a rule, the concentration that gives 50% inhibition) is 10200 nM. Moreover, in assay [3], the inhibition entry was “inactive”.

With `COCc1cc2c(C(=O)Nc3c(Cl)cncc3Cl)ccc(OC)n2n1`, the Activity in the assay with Rattus norvegicus [4] is reported as 54%. For the same compound, inhibition in assay [2] was half-maximal at 13 nM (IC50). The inhibition result in assay [3] is “inactive”.

As to `COc1ccc(C(=O)Nc2c(Cl)c[n+]([O-])cc2Cl)c2cc(C(F)(F)F)nn12`, in the assay on Rattus norvegicus [5], the Activity was found to be 77%. This compound yielded an IC50 in assay [2] of 1.5 nM. The inhibition entry in assay [3] is “inactive”.

For `COc1ccc(C(O)Cc2c(Cl)cncc2Cl)c2cc(C(F)(F)F)nn12` (centres undefined), the IC50 in assay [2] was determined as 39 nM. The inhibition result in assay [3] is “inactive”.

Consider `CSc1ccc(C(=O)Nc2c(Cl)cncc2Cl)c2cc(C(F)(F)F)nn12`, for which the Activity in the assay with Rattus norvegicus [5] stood at 52%. Moreover, the IC50 in assay [2] is 0.11 nM; in assay [6], over 100000 nM.

As to `CC(O)c1ccc(C(=O)Nc2c(Cl)cncc2Cl)c2cc(C(F)(F)F)nn12` (centres undefined), the Activity in the assay on Rattus norvegicus [5] is reported as 59%. Further, the half-maximal inhibitory concentration (IC50) in assay [2] is 8 nM; in assay [6] it was over 100000 nM.

Consider `COc1ccc(C(=O)Nc2c(Cl)cncc2Cl)c2cc(C=O)nn12`, for which the Activity in the assay on Rattus norvegicus [5] amounted to 64%. Moreover, in assay [2], the IC50 came out at 9.8 nM. The inhibition result in assay [3] is “inactive”.

`COc1ccc(C(=O)Nc2c(Cl)cncc2Cl)c2cc(C(=O)O)nn12` returned an IC50 in assay [2] of 550 nM. For the same compound, the inhibition result in assay [3] was “inactive”.

For the compound `CC(=O)c1ccc(C(=O)Nc2c(Cl)cncc2Cl)c2cc(C(F)(F)F)nn12`, the Activity in the assay on Rattus norvegicus [5] was 43%. Moreover, the IC50 in assay [2] was found to be 21 nM. Besides, in assay [3], the inhibition result is “inactive”.

In the case of `O=C(Nc1c(Cl)cncc1Cl)c1ccc(CO)n2nc(C(F)(F)F)cc12`, the Activity in the assay on Rattus norvegicus [5] was 26%. In assay [2], this compound yielded an IC50 of 31 nM. Moreover, the inhibition entry in assay [3] was “inactive”.

`COc1cccc2c(C(=O)Nc3c(Cl)c[n+]([O-])cc3Cl)c(C(F)(F)F)nn12` displayed a half-maximal inhibitory concentration (IC50) in assay [2] of 16600 nM. Also, in assay [3], the inhibition result is “inactive”.

Consider `CCc1cc2c(C(=O)Nc3c(Cl)cncc3Cl)ccc(OC)n2n1`, for which, in the assay on Rattus norvegicus [5], the Activity was determined as 53%. The concentration for half-maximal inhibition (IC50) in assay [2] is 7 nM; in assay [6], over 100000 nM.

With `COc1ccc(C(=O)Cc2c(Cl)cncc2Cl)c2cc(C(F)(F)F)nn12`, in the assay on Rattus norvegicus [1], the Activity was 87%. This compound also returned a 50% inhibitory concentration (IC50) in assay [2] of 2.9 nM. The inhibition entry in assay [3] is “inactive”.

As to `COCc1ccc(C(=O)Nc2c(Cl)cncc2Cl)c2cc(C(F)(F)F)nn12`, in the assay with Rattus norvegicus [5], the Activity is 31%. Also, half-maximal inhibition in assay [2] (IC50) was put at 4.5 nM. Further, the inhibition result in assay [3] was “inactive”.

As to `COc1ccc(NC(=O)c2c(Cl)cncc2Cl)c2cc(C(F)(F)F)nn12`, the IC50 in assay [2] came to 240 nM. Besides, in assay [3], the inhibition result was “inactive”.

With `O=C(Nc1c(Cl)cncc1Cl)c1ccc(OC(F)F)c(OCC2CC2)c1` [ROFLUMILAST], in the assay with Rattus norvegicus [1], the Activity stood at 59%. This compound displayed an IC50 in assay [6] of over 100000 nM.

Compound `COc1cccc2c(C(=O)Nc3c(Cl)cncc3Cl)c(C(F)(F)F)nn12` displayed an IC50 in assay [2] of 6130 nM. Moreover, the inhibition entry in assay [3] was “inactive”.

In turn, `COc1ccc(C(=O)Cc2ccncc2)c2cc(C(F)(F)F)nn12` returned an IC50 in assay [2] of 9.4 nM. Moreover, the inhibition result in assay [3] was “inactive”.

On to `COc1ccc(C(=O)Nc2c(Cl)c[n+]([O-])cc2Cl)c2cc(C#N)nn12`, for which, in the assay with Rattus norvegicus [5], the Activity was determined as 61%. This compound also returned a half-maximal inhibitory concentration (IC50) in assay [2] of 22 nM. Further, the inhibition result in assay [3] is “inactive”.

For `COc1ccc(C(O)Cc2ccncc2)c2cc(C(F)(F)F)nn12` (centres undefined), the half-inhibitory concentration (IC50) in assay [2] stood at 750 nM. For the same compound, the inhibition entry in assay [3] was “inactive”.

As to `COc1ccc(C(=O)Nc2c(Cl)cncc2Cl)c2cc(/C=N/O)nn12`, the Activity with Rattus norvegicus [5] is reported as 41%. Also, the 50% inhibitory concentration (IC50) is 5.1 nM in assay [2] and over 100000 nM in assay [6].

On to `COc1ccc(C(=O)Nc2c(Cl)cncc2Cl)c2cc(C(C)O)nn12` (centres undefined), for which the Activity with Rattus norvegicus [5] stood at 60%. Besides, the IC50 in assay [2] came out at 83 nM. Besides, the inhibition entry in assay [3] was “inactive”.

With `COc1ccc(C(=O)c2ccncc2)c2cc(C(F)(F)F)nn12`, the 50% inhibitory concentration (IC50) in assay [2] stood at 980 nM. Also, the inhibition entry in assay [3] was “inactive”.

Regarding `COc1ccc(C(=O)Nc2c(Cl)cncc2Cl)c2cc(C(C)C)nn12`, in the assay with Rattus norvegicus [5], the Activity was determined as 64%. The compound further yielded a 50% inhibitory concentration (IC50) in assay [2] of 110 nM. Besides, in assay [3], the inhibition entry is “inactive”.

On to `COc1ccc(/C=C/c2c(Cl)cncc2Cl)c2cc(C(F)(F)F)nn12`, for which the Activity in the assay with Rattus norvegicus [5] stood at 39%. In assay [2], the half-inhibitory concentration (IC50) worked out at 5.5 nM. The inhibition entry in assay [3] is “inactive”.

For `COc1ccc(CNc2c(Cl)cncc2Cl)c2cc(C(F)(F)F)nn12`, the figures for the IC50 in assay [2] and in assay [6] were 150 nM and 71400 nM, respectively.

As to `COc1ccc(C(=O)Nc2c(Cl)cncc2Cl)c2cc(C#N)nn12`, the Activity in the assay with Rattus norvegicus [5] is given as 66%. Besides, the IC50 was 4.1 nM in assay [2] and over 100000 nM in assay [6].

As for `COc1ccc(C(=O)Nc2c(Cl)cncc2Cl)c2cc(C3CC3)nn12`, the Activity in the assay with Rattus norvegicus [5] is 71%. Moreover, the IC50 in assay [2] is 0.51 nM; in assay [6], over 100000 nM.

On to `COc1ccc(C(=O)Nc2c(Cl)cncc2Cl)c2cc(C(F)(F)F)nn12`, for which the Activity with Rattus norvegicus [4] is 60%. Further, the IC50 in assay [2] was 0.27 nM. In addition, in assay [3], the inhibition entry was “inactive”.

`COc1ccc(Cc2ccncc2)c2cc(C(F)(F)F)nn12`: the IC50 in assay [2] is 570 nM; in assay [6] it was over 100000 nM.

As for `COc1ccc(C(=O)Nc2c(Cl)cncc2Cl)c2cc(C(F)F)nn12`, the Activity in the assay on Rattus norvegicus [5] is 32%. Moreover, in assay [2], inhibition was half-maximal at 0.2 nM (IC50). For the same compound, the inhibition result in assay [3] is “inactive”.

As for `COc1ccc(/C=C/c2ccncc2)c2cc(C(F)(F)F)nn12`, the Activity in the assay on Rattus norvegicus [5] worked out at 57%. In addition, the results for the half-maximal inhibitory concentration (IC50) in assay [2] and in assay [6] were 15 nM and 67100 nM, respectively.

As for `CCc1cc2c(C(=O)Nc3c(Cl)c[n+]([O-])cc3Cl)ccc(OC)n2n1`, the Activity in the assay with Rattus norvegicus [5] came to 40%. In assay [2], this compound came in with an IC50 of 9.4 nM. Besides, the inhibition result in assay [3] was “inactive”.

As for `COc1ccc(C2=NNC(=O)CC2C)c2cc(C(F)(F)F)nn12` (single isomer, unassigned; (-)), the Activity in the assay on Rattus norvegicus [4] turned out to be 79%.

Consider `COc1ccc(C(=O)Nc2c(Cl)c[n+]([O-])cc2Cl)c2cc(C3CC3)nn12`, for which the Activity in the assay on Rattus norvegicus [4] turned out to be 62%. Besides, in assay [2], the 50% inhibitory concentration (IC50) amounted to 2.8 nM. In addition, the inhibition entry in assay [3] was “inactive”.

In turn, `COc1ccc(C(=O)C(=O)c2ccncc2)c2cc(C(F)(F)F)nn12` yielded an IC50 in assay [2] of 1260 nM. In assay [3], the inhibition result is “inactive”.

For `COc1ccc(C(=O)Nc2c(Cl)c[n+]([O-])cc2Cl)c2ccnn12`, in the assay on Rattus norvegicus [5], the Activity amounted to 57%. The compound further returned an IC50 in assay [2] of 2.7 nM. Further, in assay [3], the inhibition entry is “inactive”.

Turning to `COc1ccc(C(=O)Nc2c(Cl)cncc2Cl)c2ccnn12`, in the assay on Rattus norvegicus [5], the Activity was determined as 0%. In addition, the IC50 in assay [2] was 39 nM; in assay [6], over 100000 nM.

As for `COCc1cc2c(C(=O)Nc3c(Cl)c[n+]([O-])cc3Cl)ccc(OC)n2n1`, the Activity in the assay on Rattus norvegicus [5] amounted to 18%. The compound further returned an IC50 in assay [2] of 50 nM. Further, the inhibition result in assay [3] was “inactive”.

As for `CNc1ccc(C(=O)Nc2c(Cl)cncc2Cl)c2cc(C(F)(F)F)nn12`, the Activity in the assay with Rattus norvegicus [5] is 33%. In addition, the IC50 in assay [2] stood at 0.19 nM. The inhibition result in assay [3] is “inactive”.

For `COc1ccc(CCc2ccncc2)c2cc(C(F)(F)F)nn12`, the Activity in the assay with Rattus norvegicus [5] came out at 55%. In assay [2], half-maximal inhibition (IC50) required 4.9 nM. Besides, the inhibition result in assay [3] is “inactive”.

For `COc1ccc(C(=O)Nc2c(Cl)cncc2Cl)c2cc(C(C)=O)nn12`, the Activity in the assay with Rattus norvegicus [5] was found to be 41%. Moreover, the half-maximal inhibitory concentration (IC50) in assay [2] is 2.9 nM; in assay [6], over 100000 nM.

(Values after ChEMBL document CHEMBL2424518, “Phosphodiesterase inhibitors. Part 6: design, synthesis, and structure-activity relationships of PDE4-inhibitory pyrazolo[1,5-a]pyridines with anti-inflammatory activity” (Bioorg Med Chem Lett, 2013).)
